Activity calls are given as the source filed them. The rule behind the calls is not given here.

The text below walks through data of ChEMBL document CHEMBL5543096 (J Med Chem, 2024).

A short description of series [1]: Toxicity in chronic restraint stress-induced depressive C57BL/6J mouse model assessed as spleen pathological change at 25 to 300 microg/kg,ip administrated on day 29 to 33 measured on day 36 by hematoxylin and eosin staining based microscopic analysis. The format is tissue-based. The following applies: in vivo, 192 h, dose 25-300 µg/kg, time 8 day.
The nature of series [2]: AUC (0 to infinity) in Sprague-Dawley rat at 0.3 mg/kg,ip measured at 0.05 to 24 hrs of post administration by LC-MS/MS analysis. Type of series: ADME, organism-based. The following applies: in vivo, time 0.05-24 hrs.
In series [3] the test system is Mus musculus. Put plainly: Antidepressant activity in Reserpine-induced depressive ICR mouse model assessed as decrease in immobility time at ip administrated on day 4 to 8 measured on day 10 by forced swimming test. Type of series: functional, organism-based. The following applies: time 7.0 day.
Series [4] can be described thus: MRT (0 to last) in Sprague-Dawley rat at 0.3 mg/kg,iv measured at 0.05 to 24 hrs of post administration by LC-MS/MS analysis. The format is ADME, organism-based. Conditions: in vivo, time 0.05-24 hrs.
Series [5] is described as follows: Tmax in Sprague-Dawley rat at 0.3 mg/kg,iv measured at 0.05 to 24 hrs of post administration by LC-MS/MS analysis. The following applies: in vivo, time 0.05-24 hrs. Type of series: ADME, organism-based.
Series [6] can be described thus: Toxicity in chronic restraint stress-induced depressive C57BL/6J mouse model assessed as decrease in percentage of spontaneous alternation at 4 mg/kg,ip administration by Y-maze test. Type of series: organism-based. Conditions: in vivo.
A short description of series [7]: Toxicity in chronic restraint stress-induced depressive C57BL/6J mouse model assessed as kidney pathological change at 25 to 300 microg/kg,ip administrated on day 29 to 33 measured on day 36 by hematoxylin and eosin staining based microscopic analysis. Type of series: tissue-based. The following applies: in vivo, 192 h, dose 25-300 µg/kg, time 8 day.
For series [8], the target named is T1, Muscarinic acetylcholine receptor M1 (Homo sapiens, UniProt P11229).
T1 sequence (P11229 whole entry): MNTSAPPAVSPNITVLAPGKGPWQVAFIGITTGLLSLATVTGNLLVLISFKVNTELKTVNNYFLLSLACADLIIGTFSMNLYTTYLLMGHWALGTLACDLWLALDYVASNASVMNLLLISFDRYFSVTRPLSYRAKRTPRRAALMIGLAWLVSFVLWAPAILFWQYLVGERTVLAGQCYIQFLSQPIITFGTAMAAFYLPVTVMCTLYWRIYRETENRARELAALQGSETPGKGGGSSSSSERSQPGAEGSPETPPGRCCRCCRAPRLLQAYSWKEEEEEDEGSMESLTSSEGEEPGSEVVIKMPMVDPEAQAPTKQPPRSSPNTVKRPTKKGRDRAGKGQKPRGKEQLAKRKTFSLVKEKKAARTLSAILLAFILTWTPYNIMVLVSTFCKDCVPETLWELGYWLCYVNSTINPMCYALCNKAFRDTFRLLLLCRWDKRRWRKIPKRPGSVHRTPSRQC
Put plainly: Antagonist activity at human muscarinic M1 receptor expressed in CHO cells incubated for 10 mins in presence of acetylcholine by inositol 1-phosphate accumulation assay. The format is functional, cell-based.

A short description of series [9]: Toxicity in chronic restraint stress-induced depressive C57BL/6J mouse model assessed as heart pathological change at 25 to 300 microg/kg,ip administrated on day 29 to 33 measured on day 36 by hematoxylin and eosin staining based microscopic analysis. The format is tissue-based. Conditions: in vivo, 192 h, dose 25-300 µg/kg, time 8 day.
The subject of the next series is HT-22. Put plainly: Neuroprotective activity against CORT-induced cytotoxicity in mouse HT-22 cells assessed as increase in cell viability at 12.5 to 100 uM incubated for 24 hrs by CCK-8 assay. Type of series: functional, cell-based. Conditions: dose 12.5-100 µM.
Series [10] has as its system Mus musculus. As to the kind of experiment: Antidepressant activity in chronic restraint stress-induced depressive C57BL/6J mouse model assessed as increase in hippocampal BDNF mRNA expression at 0.3 mg/kg,ip administration measured after 8 hrs by qRT-PCR analysis. The format is functional, organism-based.
A short description of series [11]: Toxicity in chronic restraint stress-induced depressive C57BL/6J mouse model assessed as liver pathological change at 25 to 300 microg/kg,ip administrated on day 29 to 33 measured on day 36 by hematoxylin and eosin staining based microscopic analysis. The format is tissue-based. Conditions: in vivo, 192 h, dose 25-300 µg/kg, time 8 day.

With `CN1[C@@H]2C[C@@H](OC(=O)[C@@](F)(CO)c3ccccc3)C[C@H]1[C@@H]1O[C@@H]12`, the Activity result in series [1] is “Non-Toxic”; in the series with Mus musculus [3], “Dose-Dependent Effect”; in series [6], “Toxic”; in [7] it was “Non-Toxic”; in series [9], “Non-Toxic”; in series [11], “Non-Toxic”. The same compound gave an AUC(0-inf) in series [2] of 25.9 ng·h/mL. For the same compound, in series [4], the MRT last came to 13.8 min. Also, the Tmax in series [5] was determined as 3 min. The IC50 in series [8] came to 14.6 nM. The result in the series with HT-22 and with Mus musculus [10] was Active.
